In US20250049830A1, “PHARMACEUTICAL COMPOSITION FOR PREVENTING OR TREATING CANCER, COMPRISING SGLT-2 INHIBITOR AND GOSSYPOL” (HAIM BIO., LTD., priority 2019, published 2025):
“Also recorded” adds a separate entry of the source.

Assays:
Format in all cases: cell-based, human
[1] = system: pancreatic cancer cell line Mia Paca-2; assay: Cell viability (Cell Counting Kit-8) of pancreatic cancer cell line Mia Paca-2 after drug treatment; conditions: SGLT-2 inhibitor with gossypol and/or phenformin, FIGS. 2b, 2c
Method: (§1) Each of the cell lines was cultured according to the ATCC guidelines in 10% FBS-containing RPMI 1640, DMEM, or Eagle's MEM medium supplemented with 1% penicillin-streptomycin (Gibco) in a 5% CO2 incubator (HERAcell 150i, Thermo Scientific, Waltham, MA, USA) at 37° C. and was used in the experiment.
At the same time, the number of cells in each sample was measured with a cell viability assay kit (Cell Counting Kit-8), and the measured value was calculated as a percentage of the number of cells in the negative control group to compare the number of cells between the samples. All experiments were repeated several times and the measured values were averaged. […] The numerical values on the drawings according to all examples below are expressed as mean±standard error of the mean (SEM), and * indicates statistical significance (**P<0.01, ***P<0.001).
According to the methods of Example 1 and Example 2, the pancreatic cancer cell line Mia Paca-2 cells were cultured, and then each drug was administered to the cells, followed by analysis of the cell viability.

[2] = system: lung cancer cell line A549; assay: Cell viability (Cell Counting Kit-8) of lung cancer cell line A549 after drug treatment; conditions: SGLT-2 inhibitor 50 μM, gossypol 5 μM, phenformin 10 μM, FIG. 1c
Method: as §1
The lung cancer cell line A549 cells prepared by the method of Example 1 were seeded into a 96-well plate at a concentration of 1×10^4 cells/well and cultured overnight at 37° C. in a 5% CO2 environment. […]
Thereafter, 100 μL of each cell culture and 10 μL of incubation buffer (CCK) were mixed together, placed in a 96-well plate, and incubated at room temperature for 1 hour, and then the absorbance was measured at a wavelength of 450 nm using a spectrophotometer (Synergy HTX Multi-Reader, BioTek, Winooski, VT, USA). At the same time, the number of cells in each sample was measured with a cell viability assay kit (Cell Counting Kit-8), and the measured value was calculated as a percentage of the number of cells in the negative control group to compare the number of cells between the samples. All experiments were repeated several times and the measured values were averaged.

[3] = system: brain cancer cell line U87; assay: Cell viability (Cell Counting Kit-8) of brain cancer cell line U87 after drug treatment; conditions: SGLT-2 inhibitor with gossypol and phenformin, FIGS. 3b, 3c
Method: The present inventors obtained the human lung cancer cell line A549, the pancreatic cancer cell line Mia Paca-2, the brain cancer cell line U87, and the colon cancer cell line SW480 from the American Type Culture Collection (ATCC). Each of the cell lines was cultured according to the ATCC guidelines in 10% FBS-containing RPMI 1640, DMEM, or Eagle's MEM medium supplemented with 1% penicillin-streptomycin (Gibco) in a 5% CO2 incubator (HERAcell 150i, Thermo Scientific, Waltham, MA, USA) at 37° C. and was used in the experiment.
At the same time, the number of cells in each sample was measured with a cell viability assay kit (Cell Counting Kit-8), and the measured value was calculated as a percentage of the number of cells in the negative control group to compare the number of cells between the samples. All experiments were repeated several times and the measured values were averaged.
According to the methods of Example 1 and Example 2, the brain cancer cell line U87 cells were cultured, and then each drug was administered to the cells, followed by analysis of the cell viability.

[4] = system: U87 tumor spheroids; assay: Tumor spheroid size/diameter of U87 cell line after drug administration; conditions: for size of the tumor spheroid cells (cell photographs): 14 days, gossypol 5 μM, phenformin 10 μM; for size of the cells (cell photographs): SGLT-2 inhibitor alone or in combination with gossypol and phenformin, FIG. 9
Method: The U87 cell line cells prepared according to the method of Example 1 were seeded into a 96-well plate at a density of 1.0×10^2 cells/well in DMEM media containing 2% Matrigel (Corning, NY, USA), and stabilized in a 5% CO2 incubator at 37° C. for 3 days to form tumor spheroids. After stabilization, the cells were cultured in a 5% CO2 incubator at 37° C. for 14 days. […] Referring to FIGS. 6b, 7b and 8b, the rate of change in diameter of the spheroid in the graph was calculated as a percentage based on the change in the average diameter after administration of each drug compared to the average diameter of tumor spheroid cells seeded in the 96-well plate.

[5] = system: lung cancer line A549 cells; assay: Oxygen consumption rate (OCR) during mitochondrial respiration, Seahorse XF24, A549; conditions: SGLT-2 inhibitor 50 μM, gossypol 5 μM, phenformin 10 μM, alone or in combination, overnight, FIG. 10
Method: In order to measure mitochondrial respiration, which is the main energy metabolic process of cells, the present inventors analyzed cellular oxygen consumption rate (OCR) by measuring intracellular oxygen concentration. The oxygen consumption rate that occurs during energy metabolism can be a measure of how actively cancer cell division occurs during the metabolic process of cancer cells. 1 mL of XF Calibrant buffer (Agilent Technologies) was added to a sensor cartridge (Agilent Technologies, Palo Alto, CA, USA) and incubated in a non-CO2 incubator overnight at 37° C. […] In addition, the XF24 microplate was placed in the Agilent seahorse XF24 (Agilent Technologies) instrument, and OCR was measured. Here, the measured values were compared with percentage values based on picomoles per minute (pM/min).

[6] = Comparative Example 1: canagliflozin 50 μM, FIG. 6a
[7] = Comparative Example 3: empagliflozin 75 μM, FIG. 8a

Cc1ccc([C@@H]2O[C@H](CO)[C@@H](O)[C@H](O)[C@H]2O)cc1Cc1ccc(-c2ccc(F)cc2)s1 [canagliflozin]
cancer therapeutic effect of co-administration compared to SGLT-2 inhibitor alone [1]: more effective
synergistic effect when administered in combination with gossypol and phenformin [2]: highest synergistic effect
cancer therapeutic effect of co-administration compared to SGLT-2 inhibitor alone [3]: better effect
size of the tumor spheroid cells (cell photographs) [4, 6]: decreased
size of the cells (cell photographs) [4]: decreased compared to that in the control group; also recorded: most significant reduction in the cell size

OC[C@H]1O[C@@H](c2ccc(Cl)c(Cc3ccc(O[C@H]4CCOC4)cc3)c2)[C@H](O)[C@@H](O)[C@@H]1O [empagliflozin]
oxygen consumption rate [5]: also low
size of the tumor spheroid cells (cell photographs) [4, 7]: decreased
size of the cells (cell photographs) [4]: decreased compared to that in the control group

[H]/N=C(/N)N/C(=N/[H])NCCc1ccccc1 [phenformin]
size of the tumor spheroid cells (cell photographs) [4, 6]: decreased
size of the tumor spheroid cells (cell photographs) ([4]; Comparative Example 2: dapagliflozin 75 μM, FIG. 7a): decreased
size of the tumor spheroid cells (cell photographs) [4, 7]: decreased
